Reference: US11519014B2, “Specific substrate of an ALDH isoenzyme” (ADVANCED BIODESIGN, priority 2016, dated 2022)
Blank lines part the entries; values can stand above or below the molecule they belong to.

What was measured:
ALDH1A1 [1] = molecular target: T1, ALDH1A1 (Homo sapiens, UniProt P00352); assay: Double localization of resorufin propionate and ALDH1A1 by fluorescent microscopy (NCI-H522 cells); format: cell-based; conditions: results not shown
T1 construct: purchased R&D Systems 5869-DH
T1 sequence (P00352 1-501): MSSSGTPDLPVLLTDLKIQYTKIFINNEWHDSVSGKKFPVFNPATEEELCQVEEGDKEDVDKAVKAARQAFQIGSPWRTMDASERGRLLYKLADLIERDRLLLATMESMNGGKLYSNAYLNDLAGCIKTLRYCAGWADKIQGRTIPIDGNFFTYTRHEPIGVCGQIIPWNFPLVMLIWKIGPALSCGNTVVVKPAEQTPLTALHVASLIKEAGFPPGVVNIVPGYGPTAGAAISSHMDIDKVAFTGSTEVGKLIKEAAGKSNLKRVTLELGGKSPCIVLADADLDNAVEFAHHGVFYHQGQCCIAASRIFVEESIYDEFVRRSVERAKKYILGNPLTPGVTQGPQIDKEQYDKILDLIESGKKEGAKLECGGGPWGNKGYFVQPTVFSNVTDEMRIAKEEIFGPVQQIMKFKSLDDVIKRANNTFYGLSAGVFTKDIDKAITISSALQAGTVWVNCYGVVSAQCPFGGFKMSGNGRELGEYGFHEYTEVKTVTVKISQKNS
Protocol: In a 24-well plate with microscope glasses previously washed with ethanol and then placed in the wells, the NCI-H522 cells were added at a cell concentration of 50.000 cells/well and then incubated in RPMI-1640 medium supplemented with L-Glutamine, Penicillin, Streptomycin and 10% Fetal Calf Serum overnight at +37° C. with a 5% CO2 atmosphere. The next day, the culture medium was changed with either DIMATE (5 μM) or the treatment vehicle and incubated for 6 hours. The cells were incubated for 30 minutes with culture medium supplemented with 10 μM of resorufin propionate, were then washed with cold PBS and then fixed with paraformaldehyde for 15 minutes at 37° C. The cells were permeabilized and saturated with PBS; 3% bovine albumin; 0.3% triton for 1 hour. The incubation was carried out with the anti-ALDH1A1 antibody (R&D System, MAB5869) for 1 hour at +37° C., then with an anti-mouse antibody coupled to fluorescein for 1 hour at room temperature in the dark, with PBS washes between the two steps. 3 washes with PBS were carried out then the microscopy glasses were mounted with an anti-decoloration support supplemented with DAPI. The cells were then observed under a microscope.

ALDH3A1 = molecular target: T2, ALDH3A1 (Homo sapiens, UniProt P30838); assay: Determination of the Km and Vmax of resorufine propionate with purified ALDH3A1; format: biochemical; conditions: column ALDH3
T2 construct: purchased R&D Systems 6705-DH
T2 sequence (P30838 1-453): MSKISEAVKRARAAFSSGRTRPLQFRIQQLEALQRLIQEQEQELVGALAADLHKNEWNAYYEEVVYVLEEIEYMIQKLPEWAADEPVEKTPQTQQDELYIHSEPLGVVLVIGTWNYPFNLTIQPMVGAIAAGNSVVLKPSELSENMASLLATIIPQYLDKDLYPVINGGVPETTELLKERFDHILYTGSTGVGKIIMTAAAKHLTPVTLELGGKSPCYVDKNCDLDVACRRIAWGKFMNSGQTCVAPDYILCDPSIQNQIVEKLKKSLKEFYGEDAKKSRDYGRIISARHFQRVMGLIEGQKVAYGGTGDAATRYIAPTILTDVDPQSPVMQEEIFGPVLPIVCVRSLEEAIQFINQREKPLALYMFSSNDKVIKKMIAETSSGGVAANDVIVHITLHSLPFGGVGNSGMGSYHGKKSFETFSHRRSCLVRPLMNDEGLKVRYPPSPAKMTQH
Protocol: (§1) In 50 μl of 0.1 M phosphate buffer pH6.00; 0.2 M KCl; 2 mM NADP+; 2 mM EDTA, a range of resorufine propionate was made: 250, 200, 150, 125, 100, 90, 80 and 70 μM and 0 μM. 50 μL of recombinant enzyme solution at 2.5 mU/well ALDH1A1 (R&D Sytems, 5869-DH), ALDH2 (abcam, ab87415) and ALDH3A1 (R&D Sytems, 6705-DH) was added. The incubation was carried out for 30 minutes at +37° C. and then the fluorescence reading was made (Em: 590 nm, Ex: 530 nm). The data were then converted to resorufin released (nM·min-1.μg^−1) and Km and Vmax were calculated using the Michaelis-Menten equation using GraphPad Prism 5.0.

ALDH1A1 [2] = molecular target: T1, ALDH1A1; assay: Determination of the Km and Vmax of resorufine propionate with purified ALDH1A1; format: biochemical; conditions: column ALDH1; relative to ALDH1
Protocol: as §1

ALDH1A1 [3] = molecular target: T1, ALDH1A1; assay: ALDH1 activity by resorufine propionate after treatment with interfering RNA ALDH1A1 (NCI-H522 cells); format: cell-based; conditions: 100 nM of siRNA, 10 μM resorufin propionate, P<0.05, FIG. 2
Protocol: In a 60 mm Petri dish, the NCI-H522 cells were seeded at a concentration of 250.000 cells/plate, corresponding to a confluence of 40-50%, in RPMI-1640 medium supplemented with L-Glutamine, Penicillin, Streptomycin and 10% Fetal Calf Serum (FCS) overnight at 37° C. The next day, the medium was replaced by the same medium without FCS. The transfection solution was then prepared by diluting 100 nM in 500 μL of culture medium without FCS, to which 500 μL of culture medium without FCS supplemented with 3 μL of lipofectamine 2000 (Invitrogen) was added. The solution was then incubated for 30 minutes at room temperature and then drops added to the cell solution. The mixture was incubated at +37° C. in a 5% CO2 incubator for 8 hours. […] The specific activity of ALDH1A1 was then assayed by fluorescence.
The cells were inoculated at a concentration of 1×10^4 cells/well in a 96-well plate in 100 μl in RPMI-1640 medium without phenol red supplemented with L-Glutamine, Penicillin, Streptomycin and 10% Fetal Calf Serum (FCS) supplemented with 10 μM resorufin propionate. The cells were then incubated for 1 hour and then the plate was read using an Appliskan fluorescent plate reader (ex=560 nm, Em=600). The data were expressed in relative fluorescence units produced by an equal number of cells.

ALDH2 = molecular target: T3, ALDH2 (Homo sapiens, UniProt P05091); assay: Determination of the Km and Vmax of resorufine propionate with purified ALDH2; format: biochemical; conditions: column ALDH2; relative to ALDH1
T3 construct: purchased abcam ab87415
T3 sequence (P05091 18-517): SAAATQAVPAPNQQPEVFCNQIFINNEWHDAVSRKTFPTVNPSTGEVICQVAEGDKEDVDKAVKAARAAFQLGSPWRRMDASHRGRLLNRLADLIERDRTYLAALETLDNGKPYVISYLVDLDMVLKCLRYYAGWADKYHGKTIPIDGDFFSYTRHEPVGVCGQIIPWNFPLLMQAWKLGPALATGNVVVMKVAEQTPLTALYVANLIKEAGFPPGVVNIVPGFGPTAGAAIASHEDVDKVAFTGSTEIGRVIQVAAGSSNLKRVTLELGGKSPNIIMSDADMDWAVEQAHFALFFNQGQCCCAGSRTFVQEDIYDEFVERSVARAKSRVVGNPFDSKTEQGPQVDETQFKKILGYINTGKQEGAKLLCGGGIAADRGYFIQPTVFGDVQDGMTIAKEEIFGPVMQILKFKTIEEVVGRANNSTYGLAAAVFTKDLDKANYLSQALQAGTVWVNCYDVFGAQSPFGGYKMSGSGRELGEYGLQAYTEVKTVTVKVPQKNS
Protocol: as §1

ALDH1 [4] = assay: Identification of positive ALDH1 cells by flow cytometry via resorufin propionate; format: cell-based; conditions: 15 μM Dimate, 5 hours, FIG. 4
Protocol: In a 60 mm Petri dish, 500.000 cells were incubated with RPMI-1640 medium supplemented with L-Glutamine, Penicillin, Streptomycin and 10% Fetal Calf Serum overnight at +37° C. with 5% atmosphere. CO2. For the negative control, the cells were taken up in medium supplemented with 15 μM of dimethyl ampal thiolester (Dimate), a specific inhibitor of ALDH1 and 3, then incubated for 5 hours at 37° C., 5% CO2. After trypsination, the cells were taken up in supplemented RPMI medium and centrifuged at 800 g for 5 minutes. The cell pellet was then taken up in fresh supplemented medium containing 10 μM of resorufin propionate, and then incubated for 1 hour in a polycarbonate tube at 37° C., 5% CO2. After incubation, the cells were then centrifuged and then washed in cold PBSx1 and finally taken up in […] of cold PBSx1. The solution was then analyzed by flow cytometry ([…] or red laser).

ALDH1 [5] = assay: ALDH1 activity by resorufin propionate after treatment with inhibitors of ALDH 1 and 3 (HL-60 cells); format: cell-based; conditions: inhibitor 8 μM, 6 hours, substrate 10 μM, one hour, P<0.001, FIG. 3
Protocol: In a 96-well plate, the HL-60 cells were inoculated at a concentration of 50.000 cells/well in RPMI-1640 medium without phenol red supplemented with L-Glutamine, Penicillin, Streptomycin and 10% Fetal Calf Serum (FCS) supplemented with dimethyl ampalthiolester (DIMATE) a specific inhibitor ALDH 1 and 3, morpholino ampal thiolester (MATE) a specific inhibitor of ALDH3, at concentrations of 8 μM respectively. After incubation for 6 hours, the substrates of the different ALDHs respectively resorufine propionate for ALDH1 and resorufin 4-diethylaminobenzoate for ALDH3, were added to a final concentration of 10 μM and then incubated for one hour at +37° C. The plate was then read using an Appliskan fluorescent plate reader (ex=560 nm, Em=600). The data were expressed in relative fluorescence units produced by an equal number of cells.

[6] = substrate: CCC(=O)Oc1ccc2nc3ccc(=O)cc-3oc2c1; assay: Determination of the Km and Vmax of resorufine propionate with purified ALDH2; format: biochemical; conditions: other: column ALDH2; substrate range 70-250 μM; pH 6.0; 37.0 °C
Protocol: as §1

[7] = substrate: CCC(=O)Oc1ccc2nc3ccc(=O)cc-3oc2c1; assay: Determination of the Km and Vmax of resorufine propionate with purified ALDH1A1; format: biochemical; conditions: other: column ALDH1; substrate range 70-250 μM; pH 6.0; 37.0 °C
Protocol: as §1

melting point: 103 to 105 °C
Molecule: CCCCCC(=O)Oc1ccc2c(c1)Oc1cc(OC(=O)CCCCC)ccc1C21OC(=O)c2ccccc21 [Fluorescein di-hexanoate]

melting point: 50 to 52 °C
Molecule: CCCCCCCC(=O)Oc1ccc2c(c1)Oc1cc(OC(=O)CCCCCCC)ccc1C21OC(=O)c2ccccc21 [Fluorescein octanoate, Fluorescein dioctanoate]

colocalization of fluorescent signal with ALDH1A1 (ALDH1A1 [1]; 10 μM resorufin propionate, 30 minutes): can be colocalized with ALDH1A1 | Increase (ALDH3A1; relative to ALDH1): 0.17 | Km (ALDH3A1; substrate range 70-250 μM): 445 µM | Increase (ALDH1A1 [2]): 1 | signal resorufine propionate after ALDH1A1 siRNA (ALDH1A1 [3]): decrease significant | Increase (ALDH2): 0.54
Molecule: CCC(=O)Oc1ccc2nc3ccc(=O)cc-3oc2c1 [resorufine propionate, Resorufine propionate]

melting point: 145 to 150 °C (dec.)
Molecule: CC1=C(/C=C/C(C)=C/C=C/C(C)=C/C(=O)Oc2ccc3c(c2)Oc2cc(OC(=O)/C=C(C)/C=C/C=C(C)/C=C/C4=C(C)CCCC4(C)C)ccc2C32OC(=O)c3ccccc32)C(C)(C)CCC1 (centres unmarked) [Fluorescein di-retinoate]

Molecule: CSC(=O)C#CC(C)(C)N(C)C [DIMATE, dimethyl ampalthiolester]
conversion of resorufin propionate to resorufin, fluorescent microscopy (ALDH1A1 [1]; DIMATE 5 μM, 6 hours): inhibited | positive ALDH1 cells (living cells), flow cytometry (ALDH1 [4]; 10 μM resorufin propionate): positive ALDH1 cell inhibition is observed | viability (ALDH1 [4]; Calcein-AM): decrease in viability | inhibition of fluorescence (resorufin propionate signal) (ALDH1 [5]): significant inhibition of fluorescence

B1: ALDH2 (Homo sapiens) (protein)
chain: T3 sequence (P05091 18-517)
notes: purchased abcam ab87415
Km [6]: 116 µM | Vmax [6]: 6693 nM/min/µg

B2: ALDH1A1 (Homo sapiens) (protein)
chain: T1 sequence (P00352 1-501)
notes: purchased R&D Systems 5869-DH
Km [7]: 115 µM | Vmax [7]: 12132 nM/min/µg
